{"source": "patent US9808469B2", "about": "“Antitumor activity of multi-kinase inhibitors in triple negative breast cancer” (ENTRECHEM, S.L, priority 2014, dated 2017)", "system": "HS578T, BT549, MDA-MB-231 and HCC3153 cells", "assay": "MTT metabolization in a panel of TNBC cell lines", "format": "cell-based", "protocol": "Hs578T, BT549 and MDA-MB-231 were grown in DMEM and HCC3153 in RPMI; both mediums were purchased from Sigma Aldrich, supplemented with 10% FBS, 100 mU/mL penicillin, 100 μg/mL streptomycin and 2 mM L-glutamine, in a 5% CO2 atmosphere at 37° C. These triple negative breast cancer cell lines were obtained from the American Type Culture Collection Cell Biology Collection (ATCC) (Manassas, Va.). The medium was changed every 2 days.\nCell proliferation and growth experiments were carried out using 3-(4,5-dimethylthiazol-2-yl)-2,5-diphenyltetrazolium bromide (MTT) uptake assays, where MTT is reduced to purple formazan by the mitochondria of living cells. Increase in cell number is detected by augmented MTT metabolization, and decrease in cell number is reflected by a decrease. HS578T, BT549, MDA-MB-231 and HCC3153 cells were plated at a density of 1×10^4 cells per well in 24-well plates and cultured overnight in DMEM supplemented with 10% FBS. The cells were treated with the drug at different concentrations to plot the dose-response curves in all cancer cell lines using in the study. […] After treatment, each well was replaced with 250 μL of fresh medium containing MTT ([…]) and incubated for 1 hour. The medium was then removed and 500 μL of dimethyl sulfoxide was added to each well. The plate was agitated in the dark for 5 minutes to dissolve the MTT-formazan crystals. The absorbance of the samples was recorded at 562 nm in a multi-well plate reader (BMG labtech). Results were plotted as the mean values of quadruplicates from a representative experiment that was repeated at least two independent times.", "data": [{"smiles": "C[C@]12O[C@H](C[C@@H](O)[C@H]1O)n1c3ccccc3c3c4c(c5c6ccccc6n2c5c31)C(=O)NC4=O", "note": "[Formula (III)]", "values": [{"measurement": "MTT metabolization", "setting": "0 to 2 μM after 72 h, 500 nM over 6 days", "result": "inhibited the MTT metabolization in a dose and time dependent manner"}, {"measurement": "growth inhibition", "setting": "doses in the submicromolar (nanomolar) range, all cell lines studied", "result": "more than 80%"}, {"measurement": "IC50", "setting": "read-out: IC50 dose (MTT metabolization)", "result": 500, "unit": "nM"}]}]}
